Values after ≈ are worked out from the molar mass of the structure shown.
Tests used:
Format in all cases: functional
[1] = tested on: Trypanosoma brucei brucei; experiment: Antitrypanosomal activity against Trypanosoma brucei brucei TC427 trypomastigotes assessed percent viability at 20 ug/ml after 24 hrs by AlamarBlue assay relative to DMSO
[2] = tested on: Trypanosoma brucei brucei; experiment: Antitrypanosomal activity against Trypanosoma brucei brucei TC427 trypomastigotes after 24 hrs by AlamarBlue assay; conditions: TC427, 24 h
[3] = tested on: Trypanosoma brucei brucei; experiment: Antitrypanosomal activity against Trypanosoma brucei brucei

MIC [3] [µM] | Compound | Activity [1] [%] | MIC [2] [µM]
 | COc1cc2c3cc1Oc1cc(ccc1O)C[C@@H]1c4c(cc(OC)c(OC)c4Oc4ccc(cc4)C[C@H]3N(C)CC2)CCN1C | 1.6 | 2.6 (≈ 1.58 µg/mL)
 | COc1cc2c3cc1Oc1cc(ccc1O)C[C@@H]1c4c(cc(OC)c(O)c4Oc4ccc(cc4)C[C@H]3N(C)CC2)CCN1C | 1.9 | 3.8 (≈ 2.26 µg/mL)
27.6 (≈ 12.6 µg/mL) | COc1ccc2c(c1OC)C(C(Cl)(Cl)Cl)N1CCc3cc4c(cc3C1=C2)OCO4 (stereo not given) |  | 
 | COc1cc2c3cc1Oc1cc(cc([N+](=O)[O-])c1O)C[C@@H]1c4c(cc(OC)c(OC)c4Oc4ccc(cc4)C[C@H]3N(C)CC2)CCN1C | 1.5 | 2.2 (≈ 1.44 µg/mL)
74.4 | COc1ccc2cc3[n+](cc2c1OC)CCc1cc2c(cc1-3)OCO2 [BERBERINE] |  | 
 | COc1cc2c3cc1Oc1cc(ccc1OC(C)=O)C[C@@H]1c4c(cc(OC)c(OC)c4Oc4ccc(cc4)C[C@H]3N(C)CC2)CCN1C | 1.4 | 2.3 (≈ 1.5 µg/mL)

— ChEMBL document CHEMBL4627390, “Effect of Temperature on 1H NMR Spectra, Antitrypanosomal Activity, Conformational Analysis, and Molecular Docking of Curine Derivatives from Berberis brevissima” (2020)
